Measurements reported in PubChem BioAssay (NCI).
Several values for one entry are separate records, joined by “and”; a condition that tells them apart may be missing. Equal entries are not always repeated.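 Five compound concentrations were applied to cells in 96-well plates for 48 hours; endpoints were derived by simple linear interpolation of the resulting dose-response curve. GI50 is the concentration that inhibits growth by half. The concentration for full growth arrest is given as TGI.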

What was measured:
Assay in all cases: growth of human tumour cells (NCI), 48 h
[1] = tested on: LOX IMVI melanoma
[2] = tested on: CAKI-1 renal
[3] = tested on: CCRF-CEM leukemia
[4] = tested on: TK-10 renal
[5] = tested on: NCI-H460 lung
[6] = tested on: SK-MEL-2 melanoma
[7] = tested on: M14 melanoma
[8] = tested on: OVCAR-8 ovarian
[9] = tested on: RPMI-8226 leukemia
[10] = tested on: NCI/ADR-RES ovarian

Structure (SMILES)	GI50 [1] [µM]	TGI [1] [µM]	GI50 [2] [µM]	TGI [2]	GI50 [3] [µM]	TGI [3]	GI50 [4] [µM]	TGI [4] [µM]	GI50 [5] [µM]	TGI [5]	GI50 [6] [µM]	TGI [6]	GI50 [7] [µM]	TGI [7]	GI50 [8] [µM]	TGI [8]	GI50 [9] [µM]	TGI [9]	GI50 [10] [µM]	TGI [10] [µM]
COC(=O)Nc1nc2ccc(Oc3ccc(NC(=O)Nc4cccc(C(=O)O)c4)cc3)cc2[nH]1	> 14.6	> 25	> 23.8	> 25 µM	7.02	> 25 µM	> 23.1	> 25	7.21	> 25 µM	9.24	> 25 µM	6.75	> 25 µM	9.4	> 25 µM	8.03	> 25 µM	6.13	> 17.4
Cn1cncc1[C@@](N)(c1ccc(Cl)cc1)c1ccc2c(c1)c(-c1cccc(Cl)c1)cc(=O)n2C	1.34	5.36	3.08	14.7 µM	2.54	18.8 µM	2.57	10.8	1.97	11.9 µM	1.39	4.99 µM	0.0818	11.1 µM	2.78	14.8 µM	1.58	9.79 µM	2.54	12
O=C1CC(c2ccc(N3CCOCC3)cc2)(c2ccsc2)NC(=O)C1Sc1ccccc1Cl (stereo not given)	31.5	> 100	28.4	> 100 µM	6	> 100 µM	> 100	> 100	13.5	> 100 µM	49.3	> 100 µM	60.7	> 100 µM	7.68	> 100 µM	31.6	> 100 µM	46.7	> 100
CCC(C)(C)C(=O)O[C@H]1C[C@@H](C)C=C2C=C[C@H](C)[C@H](CC[C@@H]3C[C@@H](O)CC(=O)O3)[C@H]21	0.39	6.43	0.941	3.73 µM and 8.56 µM		30.2 µM and > 30 µM	5.38	18.2	3.91	14.1 µM and > 30 µM	0.765	5.92 µM and 1.81 µM	2.89	16.7 µM and 8.09 µM		18.2 µM and 20.6 µM	3.79	28.5 µM and > 30 µM	0.614	12.1
CCCN(CCC)C(=O)C1=Cc2ccc(-c3ccc(C(=O)N4CCCC4)cc3)cc2N=C(N)C1	9.48	24.2	7.66	40.3 µM	10.6	74.4 µM	19.6	70.1	4.46	17.4 µM	10.6	26.2 µM	5.66	22.7 µM	16.1	68.5 µM	7.66	36.4 µM	19.4	62.2
COc1cc(NS(C)(=O)=O)ccc1Nc1c2ccc(Cl)cc2nc2c(OC)cccc12	0.109		0.0316	1.87 µM	0.0309	> 91.7 µM	0.137	1.83		1.37 µM	1.47	7.35 µM	0.146	1.83 µM	0.186	5.07 µM	0.595		1.35	> 49.4
O=c1c2cccc(Cl)c2sc2c(NCCCNCCO)nc3ccccc3c12	1.41	2.77	3.79	17.6 µM	2.34	8.39 µM	3.07	7.69	1.01	2.32 µM	10.9	26.3 µM	1.79	3.54 µM	2.91	11.9 µM	2.1	5.45 µM	2.98	12.1
c1ccc(Cn2cc3c(c2-c2ccccc2)CCc2cnoc2-3)cc1	4.23	> 100	4.4	> 100 µM	3.59	> 100 µM	8.22	> 100	3.41	22.1 µM	11.5	> 100 µM	4.89	> 100 µM	8.05	> 100 µM	3.1	> 100 µM	2.75	9.53
CC[C@@H](C(=O)[C@@H](C)[C@@H](O)[C@H](C)[C@@H]1O[C@@H]([C@@H](CC)C(=O)O)CC[C@@H]1C)C1O[C@]2(C=CC(=O)[C@]3(CC[C@@](C)([C@H]4CC[C@](O)(CC)[C@H](C)O4)O3)O2)[C@H](C)C[C@@H]1C (stereo not given in full)	0.71	13.8	0.765	11.8 µM	0.278	9.3 µM	2.08	25.8	0.408	11.3 µM	1.04	7.03 µM	1.41	3.53 µM	1.73	> 45.2 µM	0.0868	4.81 µM	0.766	21.1
